Test results reported in US5026554A, “Method of inhibiting fungal growth using squalene synthetase inhibitors” (Merck & Co., Inc., priority 1990, dated 1991).
Values after ≈ are worked out from the molar mass of the structure shown.

Assays:
Squalene Synthetase = biological target: T1, Squalene Synthetase (Rattus norvegicus, UniProt Q02769); assay: Squalene Synthetase Assay (intrinsic squalene synthetase inhibitory activity); type: biochemical; details: rat liver microsomes, [4-14C]farnesyl-pyrophosphate, 30° C., 20 minutes
T1 construct: from tissue; host or cells: liver microsomes of male Charles River CD rats fed 0.1% lovastatin
T1 sequence (Q02769 1-416): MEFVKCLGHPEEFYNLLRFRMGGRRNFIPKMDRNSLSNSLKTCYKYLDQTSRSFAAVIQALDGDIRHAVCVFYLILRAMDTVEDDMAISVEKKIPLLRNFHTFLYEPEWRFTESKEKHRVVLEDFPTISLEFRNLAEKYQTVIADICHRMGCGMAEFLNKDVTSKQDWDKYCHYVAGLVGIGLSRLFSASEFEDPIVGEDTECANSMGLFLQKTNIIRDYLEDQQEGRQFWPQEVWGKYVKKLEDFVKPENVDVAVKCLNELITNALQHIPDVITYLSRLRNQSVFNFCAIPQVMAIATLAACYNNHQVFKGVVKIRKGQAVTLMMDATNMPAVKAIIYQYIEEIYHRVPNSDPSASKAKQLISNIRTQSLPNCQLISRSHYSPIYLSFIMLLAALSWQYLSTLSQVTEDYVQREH
Protocol: The intrinsic squalene synthetase inhibitory activity of representative compounds of this invention was measured by the standard in vitro protocol described below:
Male, Charles River CD rats (120 to 150 g) were fed a diet containing 0.1% lovastatin for 4 days. The livers from these rats were homogenized in 5 volumes (ml/g) of ice cold 50 mM HEPES (4-(2-hydroxyethyl)-1-piperazine-ethanesulfonic acid), 5 mM EDTA(ethylenediaminetetraacetic acid) pH 7.5 with a Potter-Elvehjem type tissue grinder. The homogenate was centrifuged twice at 20,000×g for 15 minutes at 4° C., discarding the pellet each time. The supernatant was then centrifuged at 100,000×g for 1 hour at 4° C. The resulting microsomal pellet was resuspended in a volume of the above homogenizing buffer equal to one-fifth the volume of the original homogenate. This microsomal preparation has a protein concentration of about 7 mg/ml. The microsomal suspensions were stored in aliquots at -70° C. Squalene synthetase activity in these aliquots is stable for at least several months.
Prenyl transferase was purified to use in the enzymatic synthesis of radiolabelled farnesyl pyrophosphate. Prenyl transferase was assayed by the method of Rilling (Methods in Enzymology 110, 125-129 (1985)) and a unit of activity is defined as the amount of enzyme that will produce 1 μ mole of farnesyl pyrophosphate per minute at 30° C. in the standard assay. […]

A. nidulans R21 = assay: antifungal MIC, microtiter dilution assay, filamentous fungi; type: cell-based; details: Aspergillus nidulans, 42 hours, 28° C., read-out: Minimum Inhibitory Concentration
Protocol: (§1) The compounds are particularly active towards filamentous fungi and yeasts including Candida albicans and Cryptococcus neoformans. The sensitivity of filamentous fungi and yeast was determined using inhibitor dilution assays in microtiter format. The compounds were dissolved in DMSO at 2 mg/ml and serially diluted in 0.1M phosphate buffer, pH 7.0 in the microtiter dish from 100 to 0.006 μg/ml. A standardized spore suspension for testing the filamentous fungi was prepared by inoculating Antibiotic Medium #3 containing 1.5% agar with spores such that 1.5×10^3 colony forming units were added per well. The microtiter wells were filled with 50 μl of buffer containing compound and 50 μl of inoculated medium.
(§2) The sensitivity of yeasts was determined by inoculating yeast nitrogen base containing 1% dextrose (YNB/G) with aliquots of an overnight yeast culture grown in Yeast Morphology (YM) media at 35° C. and diluting in YNB/G to yield a final concentration of 1.5-7.5×10^3 colony forming units/well. To test the sensitivity of yeast, compound was solubilized in 10 percent aqueous DMSO at 2.56 mg/ml. The compound was diluted serially in YNB/G from 128 to 0.06 μg/ml and further diluted 1:10 in YNB/G. The wells were filled with 150 μl of media containing drug. […]

Aspergillus flavus MF383 = assay: as above; type: cell-based; details: 42 hours, 28° C., read-out: Minimum Inhibitory Concentration
Protocol: as §1, §2

C. parapsilosis MY1010 = assay: antifungal MIC, microtiter dilution assay, yeast; type: cell-based; details: Lodderomyces parapsilosis, YNB/G, 24 to 48 hours, 35° C., read-out: Minimum Inhibitory Concentration
Protocol: as §1
(§3) The sensitivity of yeasts was determined by inoculating yeast nitrogen base containing 1% dextrose (YNB/G) with aliquots of an overnight yeast culture grown in Yeast Morphology (YM) media at 35° C. and diluting in YNB/G to yield a final concentration of 1.5-7.5×10^3 colony forming units/well. To test the sensitivity of yeast, compound was solubilized in 10 percent aqueous DMSO at 2.56 mg/ml. The compound was diluted serially in YNB/G from 128 to 0.06 μg/ml and further diluted 1:10 in YNB/G. The wells were filled with 150 μl of media containing drug. The minimum inhibitory concentration (MIC) is defined as the lowest concentration to prevent growth after an incubation for 42 hours, at 28° C. for the filamentous fungi and 24 to 48 hours, at 35° C. for the yeasts. Representative of the antifungal activity are the minimum inhibitory concentration data shown below.

C. tropicalis MY1012 = assay: antifungal MIC, microtiter dilution assay, yeast; type: cell-based; details: Candida tropicalis, YNB/G, 24 to 48 hours, 35° C., read-out: Minimum Inhibitory Concentration
Protocol: as §1, §3

Candida albicans MY1055 = assay: antifungal MIC, microtiter dilution assay, yeast; type: cell-based; details: YNB/G, 24 to 48 hours, 35° C., read-out: Minimum Inhibitory Concentration
Protocol: as §1, §3

Crypt. neoformans MY1051 = assay: antifungal MIC, microtiter dilution assay, yeast; type: cell-based; details: Cryptococcus neoformans, YNB/G, 24 to 48 hours, 35° C., read-out: Minimum Inhibitory Concentration
Protocol: as §1, §3

Structure (SMILES): CC(=O)OC(CCCC12OC(C(=O)O)C(O)(C(=O)O)C(C(=O)O)(O1)C(OC(=O)CCC=CC(C)CCCc1ccccc1)C2O)C(C)Cc1ccccc1 (stereo not shown) [Compound A]
- IC50 (Squalene Synthetase): 9 nM
- MIC (A. nidulans R21): 1.5 µg/mL (≈ 1.99 µM)
- MIC (Aspergillus flavus MF383): 1.5 µg/mL (≈ 1.99 µM)
- MIC (C. parapsilosis MY1010): 8 µg/mL (≈ 10.6 µM)
- MIC (C. tropicalis MY1012): 8 µg/mL (≈ 10.6 µM)
- MIC (Candida albicans MY1055): 16 µg/mL (≈ 21.2 µM)
- MIC (Crypt. neoformans MY1051): 1 µg/mL (≈ 1.32 µM)
